Results taken from paper PMC11184554, “Nature-Inspired Gallinamides Are Potent Antischistosomal Agents: Inhibition of the Cathepsin B1 Protease Target and Binding Mode Analysis” (ACS Infectious Diseases, 2024).
Where “and” joins values, the source holds several entries; their conditions need not be identical. Equal entries are not always repeated.

Columns and labels:
recombinant SmCB1 = experiment: Kinetic inhibition assay with recombinant SmCB1 (k2nd); assay type: biochemical, S. mansoni; settings: for decrease in inhibitory potency vs gallinamide A: ratio of k2nd values; for SmCB1 inhibition k2nd: second-order rate constant (kinact/Ki), substrate Cbz–Phe–Arg–AMC, pH 5.5, 37 °C, mean ± SE
Experimental: Gallinamide A and a series of its 18 derivatives were evaluated in vitro as inhibitors of SmCB1 to explore the binding specificities of the subsites in the enzyme’s active site. The gallinamide A inhibitor scaffold can be defined by positions P4 through P1′ (Schechter and Berger nomenclature[37]), which were assigned according to the binding mode analysis (see the crystallographic section below). The substituents R4, R1, and R1′ introduced on the scaffold (Table 2) are numbered according to the respective positions P4, P1, and P1′. The compounds’ second-order rate constants (k2nd) were determined using a kinetic inhibition assay with recombinant SmCB1 and the substrate, Cbz–Phe–Arg–AMC.
(§1) Inhibition measurements were performed in duplicate in 96-well microplates (100 μL assay volume) at 37 °C. SmCB1 (40 pM) was added to a mixture of the fluorogenic substrate Cbz–Phe–Arg–AMC (25 μM) and an inhibitor (0–100 μM) in 0.1 M sodium acetate, pH 5.5, containing 2.5 mM dithiothreitol and 0.01% (w/v) BRIJ 35. Substrate hydrolysis was monitored in an Infinite M1000 microplate reader (Tecan) at excitation and emission wavelengths of 360 and 465 nm, respectively, for up to 150 min. An observed first-order rate constant, kobs, was calculated at each inhibitor concentration by fitting the progress curve to the equation P = vi/kobs(1 – exp(−kobst)) + d where P is the product formation, t is the reaction time, vi is the initial velocity, and d is the offset. […] The second-order rate constant, k2nd, (and SE value) was determined by fitting the linear equation kobs = (k2nd[I])/(1 + [S]/Km), where [S] is the substrate concentration, [I] is the inhibitor concentration, and KM is the Michaelis–Menten constant. The KM value determined for SmCB1 was 25 μM. […] To determine IC50 values, SmCB1 (40 pM) was preincubated with the inhibitor (0–100 μM) for 30 min under assay conditions as described above, followed by the addition of the fluorogenic substrate Cbz–Phe–Arg–AMC (20 μM). Substrate hydrolysis was monitored for 30 min in a microplate reader as described above. The IC50 values were determined by nonlinear regression using GraFit software (Erithacus Software).

[1] = tested on: ex vivo adult mixed sex S. mansoni; experiment: Phenotypic screen with ex vivo adult schistosomes; assay type: cell-based; settings: for adult severity score: scale 0 to 4
Experimental: In the next step, the bioactive compounds gallinamide A, 1, 6, and 9 (selected for structural analyses (see below)) were phenotypically screened against adult schistosomes. Experiments were performed at 1, 2, 5, and 10 μM with ex vivo adult mixed sex S. mansoni, and the phenotypes observed over 48 h were assigned severity scores ranging from 0 to 4 (Table 3 and Table S3).
For adult schistosomes, screens were performed in 24-well plates containing four male worms and one to two female worms per well in a final volume of 2 mL of complete Basch medium. Compounds were added at the final concentrations between 1 and 10 μM. Incubations were maintained for 48 h at 37 °C under 5% CO2. Afterward, the adult worms were collected, washed in RPMI 1640 medium, and used for soluble protein extract preparation.
A constrained nomenclature of “descriptors”[39],[42] was used to record the multiple and dynamic changes in movement, shape, and translucence that the schistosome parasite is capable of (Table S1 for NTS and Table S3 for adults). These descriptors were then converted into an ordinal “severity score” system ranging from 0 (no effect) to 4 (maximum effect), which allows for the relative comparison of compound effects.

SmCB1 = SmCB1 (Schistosoma mansoni, UniProt Q8MNY2, T185A/T300A); experiment: SmCB1 IC50 determination with 30 min preincubation; assay type: biochemical, S. mansoni
Chain of SmCB1 (Q8MNY2 87-340 T185A/T300A): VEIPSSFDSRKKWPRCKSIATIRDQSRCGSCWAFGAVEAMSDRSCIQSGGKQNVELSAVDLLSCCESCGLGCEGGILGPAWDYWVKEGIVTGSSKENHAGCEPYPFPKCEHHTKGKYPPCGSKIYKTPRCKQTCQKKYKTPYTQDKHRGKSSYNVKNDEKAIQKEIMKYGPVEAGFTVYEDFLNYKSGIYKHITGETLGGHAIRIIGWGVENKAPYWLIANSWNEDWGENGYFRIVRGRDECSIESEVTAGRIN
Experimental: as §1

Structure (SMILES) | SmCB1 inhibition k2nd (recombinant SmCB1) | adult phenotype descriptors ([1]; 2 h, 1 µM) | adult severity score ([1]; 2 h, 1 μM) | adult phenotype descriptors ([1]; 2 h, 2 µM) | adult severity score ([1]; 2 h, 2 μM) | adult phenotype descriptors ([1]; 2 h, 5 µM) | adult severity score ([1]; 2 h, 5 μM) | adult phenotype descriptors ([1]; 2 h, 10 µM) | adult severity score ([1]; 2 h, 10 μM) | adult phenotype descriptors ([1]; 6 h, 1 µM) | adult severity score ([1]; 6 h, 1 μM) | adult phenotype descriptors ([1]; 6 h, 2 µM) | adult severity score ([1]; 6 h, 2 μM) | adult phenotype descriptors ([1]; 6 h, 5 µM) | adult severity score ([1]; 6 h, 5 μM) | adult phenotype descriptors ([1]; 6 h, 10 µM) | adult severity score ([1]; 6 h, 10 μM) | adult phenotype descriptors ([1]; 24 h, 1 µM) | adult severity score ([1]; 24 h, 1 μM) | adult phenotype descriptors ([1]; 24 h, 2 µM) | other results
CCC(C)C(C(=O)OC(CC(C)C)C(=O)NC(CC(C)C)C(=O)NC(C)C=CC(=O)N1C(=O)C=C(OC)C1CC(C)C)N(C)C (centres unmarked) [compound 1] | 3394 ± 133 M^–1·s^–1 | N | 0 | N | 0 | N | 0 | N | 0 | N | 0 | N | 0 | N | 0 | unc | 1 | N | 0 | N | decrease in inhibitory potency vs gallinamide A (recombinant SmCB1): 2 fold; SmCB1 inhibition k2nd (recombinant SmCB1; listed as Cpd.1): 3394 M^–1·s^–1; adult severity score ([1]; 24 h, 2 μM): 0; adult phenotype descriptors ([1]; 24 h, 5 µM): N; adult severity score ([1]; 24 h, 5 μM): 0; adult severity score ([1]; 24 h, 10 μM): 4; adult phenotype descriptors ([1]; 48 h, 1 µM): N; adult severity score ([1]; 48 h, 1 μM): 0; adult phenotype descriptors ([1]; 48 h, 2 µM): unc, dark; adult severity score ([1]; 48 h, 2 μM): 2; adult phenotype descriptors ([1]; 48 h, 5 µM): unc, dark; adult severity score ([1]; 48 h, 5 μM): 2; adult severity score ([1]; 48 h, 10 μM): 4; IC50 (SmCB1): 0.092 µM
CCC(C)C(C(=O)OC(CC(C)C)C(=O)NC(CC(C)C)C(=O)NC(C)C=CC(=O)N1C(=O)C=C(OC)C1Cc1ccccc1)N(C)C (centres unmarked) [compound 9] | 793 ± 75 M^–1·s^–1 | N | 0 | N | 0 | unc | 1 | unc | 1 | N | 0 | N | 0 | unc | 1 | unc, on sides | 2 | N | 0 | N | decrease in inhibitory potency vs gallinamide A (recombinant SmCB1): 8.4 fold; adult severity score ([1]; 24 h, 2 μM): 0; adult phenotype descriptors ([1]; 24 h, 5 µM): unc, Dark; adult severity score ([1]; 24 h, 5 μM): 2; adult severity score ([1]; 24 h, 10 μM): 4; adult phenotype descriptors ([1]; 48 h, 1 µM): N; adult severity score ([1]; 48 h, 1 μM): 0; adult phenotype descriptors ([1]; 48 h, 2 µM): unc, dark; adult severity score ([1]; 48 h, 2 μM): 2; adult severity score ([1]; 48 h, 5 μM): 4; adult severity score ([1]; 48 h, 10 μM): 4
COC1=CC(=O)N(C(=O)/C=C/[C@H](C)NC(=O)[C@H](CC(C)C)NC(=O)[C@H](CC(C)C)OC(=O)[C@H](Cc2ccccc2)N(C)C)[C@H]1Cc1ccccc1 [compound 6] | 1930 ± 304 M^–1·s^–1 | N | 0 | N | 0 | unc | 1 | unc, on sides | 2 | N | 0 | N | 0 | unc | 1 | unc, on sides | 2 | N | 0 | N | decrease in inhibitory potency vs gallinamide A (recombinant SmCB1): 3.4 fold; SmCB1 inhibition k2nd (recombinant SmCB1; listed as Cpd.6): 1930 M^–1·s^–1; adult severity score ([1]; 24 h, 2 μM): 0; adult severity score ([1]; 24 h, 5 μM): 2; adult severity score ([1]; 24 h, 10 μM): 4; adult phenotype descriptors ([1]; 48 h, 1 µM): N; adult severity score ([1]; 48 h, 1 μM): 0; adult phenotype descriptors ([1]; 48 h, 2 µM): dark; adult severity score ([1]; 48 h, 2 μM): 1; adult severity score ([1]; 48 h, 5 μM): 4; adult severity score ([1]; 48 h, 10 μM): 4; IC50 (SmCB1): 0.517 µM
CC[C@H](C)[C@@H](C(=O)O[C@@H](CC(C)C)C(=O)N[C@@H](CC(C)C)C(=O)N[C@@H](C)/C=C/C(=O)N1C(=O)C=C(OC)[C@@H]1C)N(C)C [gallinamide A] | 6644 M^–1·s^–1 and 6644 ± 532 M^–1·s^–1 | N | 0 | N | 0 | N | 0 | N | 0 | N | 0 | N | 0 | N | 0 | N | 0 | N | 0 | N | SmCB1 inhibition k2nd (recombinant SmCB1; listed as Gallinamide A): 6644 M^–1·s^–1; adult severity score ([1]; 24 h, 2 μM): 0; adult phenotype descriptors ([1]; 24 h, 5 µM): N; adult severity score ([1]; 24 h, 5 μM): 0; adult phenotype descriptors ([1]; 24 h, 10 µM): unc; adult severity score ([1]; 24 h, 10 μM): 1; adult phenotype descriptors ([1]; 48 h, 1 µM): N; adult severity score ([1]; 48 h, 1 μM): 0; adult phenotype descriptors ([1]; 48 h, 2 µM): S, dark; adult severity score ([1]; 48 h, 2 μM): 2; adult phenotype descriptors ([1]; 48 h, 5 µM): S, dark; adult severity score ([1]; 48 h, 5 μM): 2; adult severity score ([1]; 48 h, 10 μM): 3; IC50 (SmCB1): 0.044 µM
